Assay results: US7968601B2, “Adamantyl acetamides as 11-β hydroxysteroid dehydrogenase inhibitors” (Janssen Pharmaceutica N.V., priority 2002, dated 2011)

Experiments:
11b-HSD1 [1] = molecular target: 11b-HSD1 (Homo sapiens, UniProt P28845); assay: Enzymatic assay, 11b-HSD1 reductase activity (conversion of cortisone into cortisol); format: biochemical; conditions: pIC50 scored 1-3, read-out: [C1] HSD1-prot Reduct Score
Description: The effects of compounds on 11b-HSD1 dependent conversion of cortisone into cortisol (reductase activity) was studied in a reaction mixture containing 30 mM Tris-HCl buffer pH 7.2, 180 μM NADPH, 1 mM EDTA, 2 μM cortisone, 1 μl drug and/or solvent and 11 μg recombinant protein in a final volume of 100 μl.
(§1) All incubations were performed for 45 min at 37 C in a water bath. The reaction was stopped by adding 100 μl acetonitrile containing 20 μg corticosterone as internal standard. After centrifugation, the product formation was analysed in the supernatant by HPLC on a Hypersyl BDS-C18 column using 0.05 mM ammonium acetate/methanol (50/50) as solvent. In all of the aforementioned assays, the drugs to be tested were taken from a stock solution and tested at a final concentration ranging from […] to 3.10^−9M. From the thus obtained dose response curves, the pIC50 value was calculated and scored as follows; Score 1=pIC50 value<5, Score 2=pIC50 value in the range of 5 to 6, Score 3=pIC50 value>6. (in this table NT stands for Not Tested).

11b-HSD2 [2] = molecular target: T1, 11b-HSD2 (Homo sapiens, UniProt P80365); assay: Cellular assay, 11b-HSD2 activity in HepG2 cells; format: cell-based; parameters: endogenous in cells; host or cells: HepG2 (ATCC HB-8065); conditions: 4 hour pre-incubation, pIC50 scored 1-3, read-out: [C2] HSD2 cellular HepG2 Score
T1 sequence (P80365 1-405): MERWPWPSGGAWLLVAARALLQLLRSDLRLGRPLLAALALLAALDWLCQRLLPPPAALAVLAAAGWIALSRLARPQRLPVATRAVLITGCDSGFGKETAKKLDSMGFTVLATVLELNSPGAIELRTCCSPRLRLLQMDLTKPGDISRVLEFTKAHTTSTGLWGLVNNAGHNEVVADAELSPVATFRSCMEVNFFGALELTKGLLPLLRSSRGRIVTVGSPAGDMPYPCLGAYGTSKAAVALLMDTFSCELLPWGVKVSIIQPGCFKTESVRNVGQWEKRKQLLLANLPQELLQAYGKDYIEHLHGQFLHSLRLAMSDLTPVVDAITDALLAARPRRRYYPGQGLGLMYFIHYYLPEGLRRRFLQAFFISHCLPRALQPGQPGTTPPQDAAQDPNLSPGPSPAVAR
Description: The effects on 11b-HSD2 activity was studied in HepG2 and LCC-PK1-cells HepG2-cells (ATCC HB-8065) were seeded in 12 well plates at a density of 100,000 cells/ml and grown at 37 C in a humidified 5% CO2 atmosphere in MEM-Rega-3 medium supplemented with 10% heat inactivated foetal calf serum, 2 mM L-glutamine and sodium bicarbonate). Medium was refreshed twice a week. Pig kidney cells (LCC-PK1, ATCC CRL-1392) were seeded at a density of 150,000 cells/ml in 12 well plates and grown at 37 C in a humidified 5% CO2 atmosphere in Medium 199 supplemented with Earls modified salt solution, 100 U/ml penicillin, 100 μg/ml streptomycin and 10% foetal calf serum. Medium was refreshed twice a week. Twenty four hours prior to the onset of the experiment, medium was changed by medium containing 10% charcoal stripped foetal calf serum.
Following a 4 hour pre-incubation with test compound, 0.5 μCi ^3H-cortisol or corticosterone, was added to the cultures. One hour later, the medium was extracted on Extrelut^3-columns with 15 ml diethyl ether and the extract was analysed by HPLC as described above.
(§2) As for the enzymatic assays, the compounds to be tested were taken from a stock solution and tested at a final concentration ranging from […] to 3.10^−9M. From the thus obtained dose response curves, the pIC50 value was calculated and scored as follows; Score 1=pIC50 value<5, Score 2=pIC50 value in the range of 5 to 6, Score 3=pIC50 value>6. (in this table NT stands for Not Tested).

11b-HSD1 [3] = molecular target: T2, 11b-HSD1 (Mus musculus, UniProt P50172); assay: Cellular assay, 11b-HSD1 activity in differentiated 3T3-L1 cells; format: cell-based; conditions: 4 hour pre-incubation, pIC50 scored 1-3, read-out: [C2] HSD1 cellular 3T3-L1 Score
T2 construct: endogenous in cells; host or cells: 3T3-L1 (ATCC-CL-173), differentiated into adipocytes
Description: The effects on 11b-HSD1 activity was measured in differentiated 3T3-L1 cells and rat hepatocytes.
Mouse fibroblast 3T3-L1 cells (ATCC-CL-173) were seeded at a density of 16500 cells/ml in 12 well plates and grown for 7 days in DMEM medium (supplemented with 10% heat inactivated foetal calf serum, 2 mM glutamine and 25 mg gentamycin) at 37 C in a humidified 5% CO2 atmosphere. Medium was refreshed twice a week. Fibroblasts were differentiated into adipocytes at 37 C in a 5% CO2 humidified atmosphere in growth medium containing 2 μg/ml insulin, 55 μg/ml IBMX and 39.2 μg/ml dexamethasone.
Following a 4 hour pre-incubation with test compound, 0.5 μCi ^3H-cortisone or dehydrocorticosterone, was added to the cultures. One hour later, the medium was extracted on Extrelut^3-columns with 15 ml diethyl ether and the extract was analysed by HPLC as described above.
as §2

11b-HSD2 [4] = molecular target: T1, 11b-HSD2; assay: Enzymatic assay, 11b-HSD2 dependent dehydrogenase activity; format: biochemical; conditions: 11b-HSD2 dehydrogenase activity, pIC50 scored 1-3, read-out: [C1] HSD2 prot Dehydro Score
Description: The effects on the 11b-HSD2 dependent dehydrogenase activity was studied in a reaction mixture containing 0.1M sodium phosphate buffer pH 7.5, 300 μM NAD, 100 nM cortisol (of which 2 nM is 3H-radio labelled), 1 μl drug and/or solvent and 2.5 μg recombinant protein in a final volume of 100 μl.
as §1

Sequence of 11b-HSD1 (Homo sapiens, UniProt P28845) (P28845 whole entry): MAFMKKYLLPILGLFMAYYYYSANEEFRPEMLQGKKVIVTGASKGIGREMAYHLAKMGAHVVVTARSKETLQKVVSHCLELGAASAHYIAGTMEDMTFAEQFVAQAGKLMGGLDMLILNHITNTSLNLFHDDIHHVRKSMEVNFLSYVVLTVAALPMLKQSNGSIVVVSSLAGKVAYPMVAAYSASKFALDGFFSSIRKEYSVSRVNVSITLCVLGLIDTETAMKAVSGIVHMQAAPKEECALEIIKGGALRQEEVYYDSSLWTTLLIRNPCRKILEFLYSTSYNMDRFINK
T2 sequence (P50172 whole entry): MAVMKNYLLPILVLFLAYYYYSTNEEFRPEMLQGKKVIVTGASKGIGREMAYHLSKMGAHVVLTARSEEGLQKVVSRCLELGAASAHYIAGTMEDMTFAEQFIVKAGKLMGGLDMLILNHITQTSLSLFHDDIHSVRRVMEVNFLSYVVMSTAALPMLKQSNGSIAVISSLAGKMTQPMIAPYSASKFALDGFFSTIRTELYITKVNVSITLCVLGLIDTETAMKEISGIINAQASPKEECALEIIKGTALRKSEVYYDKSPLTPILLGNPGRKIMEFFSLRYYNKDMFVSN

SMILES | IC50 (11b-HSD1 [1]) | IC50 (11b-HSD2 [2]) | IC50 (11b-HSD1 [3]) | IC50 (11b-HSD2 [4])
CNc1cccc(C(C)(C)C(=O)NC2C3CC4CC(C3)CC2C4)c1 (centres unmarked) [Compound 77] | > 10 µM | > 10 µM | < 1 µM | 1 to 10 µM
O=C(NC1C2CC3CC(C2)CC1C3)C1(c2cccnc2)CCCC1 (centres unmarked) [Compound 126] | < 1 µM | > 10 µM | < 1 µM | > 10 µM
CC(C)(C(=O)NC1C2CC3CC(C2)CC1C3)c1ccc(OCCN2CCOCC2)cc1 (centres unmarked) [Compound 73] | > 10 µM | > 10 µM | < 1 µM | > 10 µM
O=C(NC1C2CC3CC(C2)CC1C3)C1Cc2ccccc21 (centres unmarked) [Compound 177] | < 1 µM | > 10 µM | < 1 µM | > 10 µM
CC(C)(C(=O)NC1C2CC3CC(C2)CC1C3)c1cc(F)ccc1F (centres unmarked) [Compound 88] | > 10 µM | > 10 µM | < 1 µM | > 10 µM
Cc1cc(CCC(=O)N2CCOCC2)cc(C(C)(C)C(=O)N[C@H]2[C@@H]3CC4C[C@H]2C[C@](O)(C4)C3)c1 [Compound 248] | < 1 µM | > 10 µM | < 1 µM | > 10 µM
O=C(NC1C2CC3CC(C2)CC1C3)C1=CCCCc2ccccc21 (centres unmarked) [Compound 168] | < 1 µM | > 10 µM | < 1 µM | > 10 µM
CC(C)(C(=O)NC1C2CC3CC(C2)CC1C3)c1ccc(OCC(=O)O)cc1 (centres unmarked) [Compound 72] | 1 to 10 µM | > 10 µM | < 1 µM | > 10 µM
CN(C)c1cccc(C(C)(C)C(=O)NC2C3CC4CC(C3)CC2C4)c1 (centres unmarked) [Compound 78] | < 1 µM | > 10 µM | < 1 µM | 1 to 10 µM
Cc1cc(CCC(=O)O)cc(C(C)(C)C(=O)NC2C3CC4CC(C3)CC2C4)c1 (centres unmarked) [Compound 230] | < 1 µM | > 10 µM | < 1 µM | > 10 µM
COc1ccc2c(c1)C(C(=O)NC1C3CC4CC(C3)CC1C4)CCC2 (centres unmarked) [Compound 203] | > 10 µM | > 10 µM | < 1 µM | > 10 µM
CCCc1cccc(C(C)(C)C(=O)NC2C3CC4CC(C3)CC2C4)c1 (centres unmarked) [Compound 166] | < 1 µM | > 10 µM | < 1 µM | > 10 µM
CC(C)(C(=O)NC1C2CC3CC(C2)CC1C3)c1ccsc1 (centres unmarked) [Compound 133] | > 10 µM | > 10 µM | < 1 µM | > 10 µM
CC1=C(C(=O)NC2C3CC4CC(C3)CC2C4)Cc2ccccc21 (centres unmarked) [Compound 141] | < 1 µM | > 10 µM | < 1 µM | > 10 µM
NC(C(=O)NC1C2CC3CC(C2)CC1C3)c1ccccc1 (centres unmarked) [Compound 50] | > 10 µM | > 10 µM | 1 to 10 µM | > 10 µM
O=C(NC1C2CC3CC(C2)CC1C3)C1CCSc2ccccc21 (centres unmarked) [Compound 182] | < 1 µM | > 10 µM | < 1 µM | > 10 µM
O=C(NC1C2CC3CC(C2)CC1C3)C1CCOc2ccccc21 (centres unmarked) [Compound 167] | < 1 µM | > 10 µM | < 1 µM | > 10 µM
